The values that follow come from patent US10413583B2, “Synthetic substrates for enzymes that catalyze reactions of modified cysteines and related methods” (The University of Chicago, priority 2016, dated 2019).

The target of one data set is T1, APT1 (Homo sapiens, UniProt O75608).
T1 construct: His-tag; made in house; host or cells: E. coli ROSETTA DE3
As to the kind of experiment: In vitro kinetic assay and emission spectra of DPP-1, DPP-2, DPP-3 with purified APT1 (with detergent). The data set is classed as biochemical. The method, then: (§1) 50 μL of 7.5 μM DPP1-3 in HEPES (20 mM, pH=7.4, 150 mM NaCl, 0.1% Triton X-100) were added to a 384-well black flat bottom plate (Corning Life Sciences, Corning, N.Y., United States of America) and placed in an Infinite M200 Pro (Tecan, Mannedorf, Switzerland) plate reader at 37° C. for 5 min to warm. 25 μL of either 4-(2-hydroxyethyl)-1-piperazineethanesulfonic acid (HEPES) buffer alone or HEPES buffer containing 150 nM APT1 or APT2, was added using a multi-channel pipette, resulting in a final concentration of 5 μM DPP1-3 and 50 nM APT1 or APT2. Fluorescence intensities (λex 490/9 nm, λem 545/20 nm, Gain 70, No. of flashes 25, Integration time 100 μs and Z-position 20000 μm) were measured at 30 second (s) time intervals for 20 min. At the end of 20 min kinetic run, emission spectra were obtained (λex 485 nm, Aem510-700 nm, Gain 100, No. of flashes 25, Integration time 100 μs and Z-position 20,000 μm).

Another data set concerns the target T2, APT2 (Homo sapiens, UniProt O95372).
T2 construct: His-tag; made in house; host or cells: E. coli ROSETTA DE3
As to the kind of experiment: In vitro kinetic assay and emission spectra of DPP-1, DPP-2, DPP-3 with purified APT2 (with detergent). The data set is classed as biochemical. The method, then: as §1

Data set [1] is described as follows: Water solubility of probes (stated in words). In kind it is physicochemical.
For a further data set, the system named is HEK293T cells. As to the kind of experiment: Live cell fluorescence imaging and flow cytometry of DPP-2 and DPP-3 in HEK293T cells. In kind it is cell-based, human. The conditions noted are these: 1 μM DPP-2 for 15 min, microscopy or flow cytometry. The method, then: HEK293T (650,000 cells per dish) cells were plated with 1.5 mL of Dulbecco's Modified Eagle Medium (DMEM) (High Glucose, 10% fetal bovine serum (FBS)) in a 35 mm glass bottom dish (D35-10-1.5-N; Cellvis, Mountain View, Calif., United States of America) 24 hrs prior to imaging. 30 min before the addition of the DPP probe, the cell culture media was removed and cells were washed with 1 mL of Delbecco's phosphate-buffered saline (DPBS). The media was then replaced with 1 mL of DMEM containing 1 μM Hoechst 33342 and either 0.1% DMSO carrier as a control, 1 or 2 μM Palm B, 0.1, 1.0, or 5 μM ML348, and incubated for 30 min at 37° C. and 5% CO2. The media was removed, the cells were washed with 1 mL of Live Cell Imaging Solution (Thermo Fisher Scientific, Waltham, Mass., United States of America), and 1 mL of 1 μM DPP-2 or DPP-3 in Live Cell Imaging Solution was added to each plate. For ML348 0.1, 1.0, or 5 μM was added along with DPP-2 or DPP-3. After incubation for 15 min at 37° C. and 5% CO2, images were obtained on an inverted epi-fluorescence microscope (Olympus IX83; Olympus Corporation, Tokyo, Japan) attached with EMCCD camera (Photometrics EVOLVE™ Delta; Photometrics, Tucson, Ariz., United States of America) with 40× oil objective (N/A 1.3) for DPP-2 (excitation filter 500/20, dichroic chroma 89007, emission filter 535/30, exposure time 200 ms, EM gain 25), Hoechst 33342: (excitation filter 402/15, emission filter 455/50, dichroic chroma 89013, exposure time 30 ms, EM gain 25), and brightfield (exposure time 5 ms, EM gain 5), and for DPP-3 (exposure time 500 ms, EM gain 150), Hoechst 33342: (exposure time 30 ms, EM gain 25), and brightfield (exposure time 20 ms, EM gain 5). Analyses were performed in ImageJ. For data analysis, the average fluorescence intensity per image in each experimental condition was obtained by selecting regions of interest (ROIs) in the brightfield image. For display, the data were normalized to the average fluorescence intensity of the control conditions. Each experiment was repeated at least three separate times with identical results.
Cells were plated on a 10 cm dish with 10 mL of DMEM/High Glucose (10% FBS, 1% P/S, L-Glutamine, Sodium pyruvate) 36-48 hours prior to the day of experiment and maintained at 37° C., 5% CO2 so as to obtain 80-90% confluency. Cells were washed with DPBS and trypsinized with 1 mL 0.05% Trypsin. 5 mL of DMEM/High Glucose (10% FBS, L-Glutamine, Sodium pyruvate) was added and cells were spun down at 1200 rpm for 3 min. Media was discarded and cells were resuspended in 5 mL of Live Cell Imaging Solution and again spun down at 1200 rpm for 3 min. The cells pellets obtained were resuspended in 3-5 mL of Live Cell Imaging Solution and divided into 500 μL aliquots. The aliquots were treated with either 0.2% DMSO carrier or 1 μM of PalmB/ML348 or 1 μM/5 μM of ML349 inhibitor. After 30 min of incubation at room temperature, 1 μL of 2.5 mM DPP-3 in DMSO was added to each aliquot for a final concentration of 5 μM, and the solutions were mixed. After 5 min incubation at room temperature, fluorescence signal in FITC channel was measured for 10000 cells (5000 for HeLa experiments) on a LSR-Fortessa 4-15 HTS (BD digital instrument, 488 nm laser with 530/30 nm filter for FITC; BD, Franklin Lakes, N.J., United States of America). For analyzing DPP2 in HEK293T cells, the aliquots were treated with either 0.2% DMSO carrier or 2 μM of PalmB, 5 or 20 μM of ML348/ML349 and then analyzed by the protocol as mentioned above. Data was analyzed by FlowJo software version 10.0.8. For comparison of A431 starved versus non-starved, parallel 10 cm dishes of A431 cells were plated in 10 mL of DMEM (high glucose, 10% FBS, 1% P/S), and grown for 36 h. The growth media was removed, and replaced by 10 mL of either DMEM (High glucose) with 10% FBS to maintain “growth” conditions, or DMEM (High glucose) without FBS respectively for “starvation” conditions, and incubated for 14 h. […]

T1 sequence (O75608 whole entry): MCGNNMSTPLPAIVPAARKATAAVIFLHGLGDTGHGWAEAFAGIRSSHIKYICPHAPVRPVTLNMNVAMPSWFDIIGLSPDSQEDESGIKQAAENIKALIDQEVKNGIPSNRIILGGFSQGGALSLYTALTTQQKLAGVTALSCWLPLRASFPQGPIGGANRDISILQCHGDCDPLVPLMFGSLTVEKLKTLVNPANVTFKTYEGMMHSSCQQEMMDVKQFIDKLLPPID
T2 sequence (O95372 whole entry): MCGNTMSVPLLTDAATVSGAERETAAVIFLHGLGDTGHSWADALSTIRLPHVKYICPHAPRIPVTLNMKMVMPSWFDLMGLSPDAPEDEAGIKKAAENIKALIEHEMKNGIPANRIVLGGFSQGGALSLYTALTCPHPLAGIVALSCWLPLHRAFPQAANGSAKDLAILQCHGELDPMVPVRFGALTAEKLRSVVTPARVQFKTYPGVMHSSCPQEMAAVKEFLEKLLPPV

As to `CCCCCCCC(=O)SC[C@@H](C(=O)NC)N(C)C(=O)Oc1ccc2c(c1)Oc1cc(N(C)C)ccc1C21OC(=O)c2ccccc21` (some centres unmarked) [DPP-2], on APT1 (5 μM probe, 50 nM APT1, 20 min), the “enhancement in fluorescence signal” value is 200 fold. Besides, the “performance as substrate / reaction kinetics” value at APT1 (purified APT1) was “slightly better than DPP-1”. On APT2, the “performance as substrate” value was “slightly better than DPP-1”. For the same molecule, the “water solubility” value in data set [1] is on record as “water soluble”. Moreover, the “probe fluorescent signal in live cells” value in the data set with HEK293T cells was “robust intracellular fluorescent signal”.
